pIC50: −log10 of the molar value. ≈ marks a conversion by molar mass, not a printed value. Read-outs that look alike come from different tables or passages of the source. Bounds are passed on as bounds.

The source of these data is patent US8901119B2, “Peptide deformylase inhibitors” (GlaxoSmithKline Intellectual Property (No. 2) Limited, priority 2011, dated 2014).

Assay [1] relates to Staphylococcus aureus WCUH29. The assay is described as follows: Antimicrobial activity assay (broth microdilution MIC). It counts as cell-based. To be noted: read-out: MIC, S. aureus WCUH29. Here is the method:
(§1) Whole-cell antimicrobial activity was determined by broth microdilution using the Clinical and Laboratory Standards Institute (CLSI, formerly NCCLS) recommended methodology (NCCLS Document M7-A7, “Methods for Dilution Antimicrobial Susceptibility Tests for Bacteria that Grow Aerobically; Approved Standard—Seventh Edition”, 2006). Compounds were tested in serial two-fold dilutions ranging from 64 to 0.06 μg/mL against a panel of at least 11 strains. This panel consisted of the following laboratory strains: Staphylococcus aureus Oxford, Staphylococcus aureus WCUH29, Enterococcus faecalis I, Enterococcus faecalis 7 or Enterococcus faecalis X7501, Haemophilus influenzae Q1, Haemophilus influenzae NEMC1 or Haemophilus influenzae H128, Moraxella catarrhalis 1502, Streptococcus pneumoniae 1629, Streptococcus pneumoniae N1387, Streptococcus pneumoniae Ery2 and Escherichia coli 7623 or Escherichia coli 3. All compounds were also tested against Haemophilus influenzae H128 or Escherichia coli 7623 efflux minus mutants (strains in which the AcrA efflux pump had been deleted) to ascertain the extent in which the molecules were effluxed out of the bacteria. In addition, the antibacterial activity of some compounds against Streptococcus pyogenes 1307006P and Streptococcus pyogenes 1308007P was also analyzed. The minimum inhibitory concentration (MIC) was determined as the lowest concentration of compound that inhibited visible growth. A mirror reader was used to assist in determining the MIC endpoint.

In assay [2] the test system is Haemophilus influenzae Q1. Described as above. It counts as cell-based. Here is the method:
as §1

Assay [3] has as its system Streptococcus pneumoniae Ery2. Described as above. It counts as cell-based. Conditions: ERY2, read-out: MIC, S. pneumoniae ERY2. Here is the method: as §1
For assay [4], the system named is Enterococcus faecalis X7501. The assay is described as above. It counts as cell-based. To be noted: read-out: MIC, E. faecalis X7501. Here is the method: as §1
Assay [5] has as its system Moraxella catarrhalis 1502. Described as above. It counts as cell-based. As to the method: as §1
In another assay the test system is Escherichia coli 3. The assay is described as above. It counts as cell-based. To be noted: read-out: MIC, E. coli 3. Here is the method: as §1
Assay [6] concerns Streptococcus pneumoniae 1629. The assay is described as above. It counts as cell-based. To be noted: read-out: MIC, S. pneumoniae 1629. Here is the method: as §1
Assay [7] relates to Haemophilus influenzae H128. The description is as above. It counts as cell-based. Conditions: read-out: MIC, H. influenzae H128. As to the method:
as §1

Another assay relates to Enterococcus faecalis I. The assay is described as above. It counts as cell-based. Conditions: read-out: MIC, E. faecalis I. Here is the method:
as §1

Assay [8] relates to Staphylococcus aureus Oxford. The description is as above. Format: cell-based. Conditions: read-out: MIC, S. aureus Oxford. As to the method: as §1
Assay [9] deals with Streptococcus pyogenes 1308007P. Described as above. Format: cell-based. To be noted: read-out: MIC, S. pyogenes 1308007P. Here is the method:
as §1

In assay [10] the test system is Streptococcus pneumoniae N1387. Described as above. Format: cell-based. To be noted: read-out: MIC, S. pneumoniae N1387. As to the method:
as §1

For assay [11], the target named is T1, Haemophilus influenzae PDF (Haemophilus influenzae, UniProt P44786). Nature of the assay: PDF IC50 Assay 2 (FDH/NAD+/Diaphorase-coupled fluorescence). It counts as biochemical. As to the method:
(§2) Enzymatic activity of PDF was measured using a formate dehydrogenase (FDH)/NAD+/Diaphorase-coupled Fluorescence detection assay. Once formate is released from methionine by PDF, it is oxidized by FDH, thereby reducing one molecule of NAD to NADH. Diaphorase then catalyzes the conversion of Resazurin to Resarufin using the NADH produced by the FDH reaction. The fluorescence intensity of Resarufin is monitored by excitation at 525 nm and emission at 598 nm. The reaction is assembled by first adding the NAD, f-MAS and Resazurin to each well of a 384 well plate containing 50 nl of test compounds. Reactions were initiated by adding PDF in reaction buffer containing FDH and Diaphorase. The final reaction composition for the Staphylococcus aureus PDF (SaPDF) assay was 50 mM potassium phosphate, 0.025% CHAPS pH 7.6, 0.25 units/mL FDH, 0.156 μm! Diaphorase; 0.025 mg/ml BSA; 1 mM NAD, 0.5% DMSO, 1 mM formyl-Met-Ala-Ser; 5 uM Resazurin, and 1 nM SaPDF, in 10 μL total volume. Serial dilutions of inhibitors were performed in DMSO. Reagents and assay format were identical for the Haemophilus influenzae PDF; in the Streptococcus pneumoniae PDF assays, assay composition was the same, except that […] enzyme was used. The endpoint of each reaction was chosen to ensure that all data were collected within the linear range of catalysis. IC50s were determined by fitting to the equation: % Inhibition=100/1+(IC50/[l])^s, where s is a slope factor, l is the inhibitor concentration and the IC50 is the concentration of compound that causes 50% inhibition.

For assay [12], the target named is T2, Streptococcus pneumoniae PDF (Streptococcus pneumoniae serotype 4, UniProt Q9F2F0).
T2 sequence (Q9F2F0 1-203): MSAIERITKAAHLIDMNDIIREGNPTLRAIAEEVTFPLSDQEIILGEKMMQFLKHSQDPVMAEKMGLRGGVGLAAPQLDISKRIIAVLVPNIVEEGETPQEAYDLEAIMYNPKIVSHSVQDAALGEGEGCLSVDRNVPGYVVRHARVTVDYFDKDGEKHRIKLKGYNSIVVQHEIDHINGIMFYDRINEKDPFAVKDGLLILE
Described as above. It counts as biochemical. Conditions: Assay 2 conditions; read-out: IC50, S. pneumoniae PDF activity. As to the method: as §2

Assay [13] addresses T3, Staphylococcus aureus PDF (SaPDF) (Staphylococcus aureus, UniProt P68826).
T3 sequence (P68826 1-183): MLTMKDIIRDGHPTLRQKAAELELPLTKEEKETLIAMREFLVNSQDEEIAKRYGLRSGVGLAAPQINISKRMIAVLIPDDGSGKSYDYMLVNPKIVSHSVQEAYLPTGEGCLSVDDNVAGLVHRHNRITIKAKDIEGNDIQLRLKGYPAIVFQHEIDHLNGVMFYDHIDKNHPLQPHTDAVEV
The assay is described as above. It counts as biochemical. To be noted: Assay 2 conditions; read-out: IC50, S. aureus PDF activity. As to the method: as §2

The target in assay [14] is T1, Haemophilus influenzae PDF. Nature of the assay: PDF IC50 Assay 1 (FDH-coupled, absorbance 340 nm). Format: biochemical. As to the method: (§3) Enzymatic activity of PDF was measured using a formate dehydrogenase (FDH)-coupled assay [Lazennec and Meinnel (1997) Anal. Biochem. 244, 180-182]. Once formate is released from methionine by PDF, it is oxidized by FDH thereby reducing one molecule of NAD to NADH and resulting in an increase in absorbance at 340 nm. Reactions were initiated by adding PDF to microtiter plates containing all other reaction components and were continuously monitored for 20 min at 25° C. The final reaction composition for the Staphylococcus aureus PDF (SaPDF) assay was 50 mM potassium phosphate, pH 7.6, 5 units/mL FDH, 7 mM NAD, 1% DMSO, 0.01% CHAPS, 1 nM SaPDF, and 3 mM formyl-Met-Ala-Ser in 40 μL total volume. Serial dilutions of inhibitors were performed in DMSO. Reagents and assay format were identical for Haemophilus influenzae PDF except that formyl-Met-Ala-Ser was 6 mM final. In the Streptococcus pneumoniae PDF assay, reaction conditions were similar but contained […] enzyme, 4 mM NAD and 4 mM formyl-Met-Ala-Ser. The varying formyl-Met-Ala-Ser concentrations reflect KM values for substrate using the different PDF isozymes. IC50s were determined by fitting to the equation: % Inhibition=100/1+(IC50/[l])^s, where s is a slope factor, l is the inhibitor concentration and the IC50 is the concentration of compound that causes 50% inhibition.

The target in assay [15] is T2, Streptococcus pneumoniae PDF. The assay is described as follows: PDF IC50 Assay 1 (FDH-coupled, absorbance 340 nm). Conditions: Assay 1 conditions; read-out: IC50, S. pneumoniae PDF activity. It counts as biochemical. Here is the method: as §3
Assay [16] deals with T3, Staphylococcus aureus PDF (SaPDF). Nature of the assay: PDF IC50 Assay 1 (FDH-coupled, absorbance 340 nm). Conditions: Assay 1 conditions; read-out: IC50, S. aureus PDF activity. It counts as biochemical. As to the method:
as §3

Setting [17] is: Q1, broth microdilution, read-out: MIC, H. influenzae Q1.

T1 sequence (P44786 whole entry): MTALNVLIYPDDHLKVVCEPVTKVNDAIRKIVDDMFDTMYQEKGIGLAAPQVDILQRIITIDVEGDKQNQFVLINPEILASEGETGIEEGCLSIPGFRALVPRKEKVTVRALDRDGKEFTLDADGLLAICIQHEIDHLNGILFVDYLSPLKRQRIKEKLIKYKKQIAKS

On to `O=CN(O)C[C@@H](CC1CCCC1)C(=O)N1NCC[C@H]1C(=O)Nc1cccc[n+]1[O-]` [Example 45, (3S)-2-((2R)-3-Cyclopentyl-2-{[formyl(hydroxy)amino]methyl}propanoyl)-N-(1-oxido-2-pyridinyl)-3-pyrazolidinecarboxamide], for which the MIC in assay [1] is 0.25 µg/mL (≈ 0.617 µM); in [2] (setting [17]), 0.5 µg/mL (≈ 1.23 µM); in assay [3] it was 0.25 µg/mL (≈ 0.617 µM); in [4], 8 µg/mL (≈ 19.7 µM); in [5] it was at most 0.06 µg/mL; with Escherichia coli 3 it was 32 µg/mL (≈ 78.9 µM). Also, the MIC in assay [6] came out at 0.5 µg/mL (≈ 1.23 µM); in [7], 1 µg/mL (≈ 2.47 µM); with Enterococcus faecalis I it was 2 µg/mL (≈ 4.93 µM); in [8] it was 1 µg/mL (≈ 2.47 µM); in assay [9], 4 µg/mL (≈ 9.87 µM); in assay [10], 0.25 µg/mL (≈ 0.617 µM).
In the case of `CN(C)Cc1nccc(NC(=O)[C@@H]2CCNN2C(=O)[C@H](CC2CCCC2)CN(O)C=O)n1` [Example 91, (3S)-2-((2R)-3-Cyclopentyl-2-{[formyl(hydroxy)amino]methyl}propanoyl)-N-{2-[(dimethylamino)methyl]-4-pyrimidinyl}-3-pyrazolidinecarboxamide], the MIC in assay [1] was 1 µg/mL (≈ 2.23 µM); in assay [2] (setting [17]) it was 0.5 µg/mL (≈ 1.12 µM); in [3], 1 µg/mL (≈ 2.23 µM); in assay [4], 16 µg/mL (≈ 35.8 µM); in assay [5], at most 0.06 µg/mL; in the assay on Escherichia coli 3 it was 4 µg/mL (≈ 8.94 µM). Also, the MIC was determined as 2 µg/mL (≈ 4.47 µM) in assay [6]; 0.5 µg/mL (≈ 1.12 µM) in assay [7]; 16 µg/mL (≈ 35.8 µM) in the assay on Enterococcus faecalis I; 4 µg/mL (≈ 8.94 µM) in assay [8]; 1 µg/mL (≈ 2.23 µM) in [9]; 0.5 µg/mL (≈ 1.12 µM) in [10].
Consider `O=CN(O)C[C@@H](CC1CCCC1)C(=O)N1NCC[C@H]1C(=O)Nc1ncccn1` [Example 84, (3S)-2-((2R)-3-Cyclopentyl-2-{[formyl(hydroxy)amino]methyl}propanoyl)-N-2-pyrimidinyl-3-pyrazolidinecarboxamide], for which the MIC in [1] is 0.125 µg/mL (≈ 0.32 µM); in assay [2] (Q1, read-out: MIC, H. influenzae Q1) it was 0.125 µg/mL (≈ 0.32 µM); in [3] it was 1 µg/mL (≈ 2.56 µM); in assay [4], 16 µg/mL (≈ 41 µM); in assay [5], at most 0.06 µg/mL; in the assay on Escherichia coli 3, 16 µg/mL (≈ 41 µM). In addition, the MIC was 1 µg/mL (≈ 2.56 µM) in assay [6]; 0.5 µg/mL (≈ 1.28 µM) in assay [7]; 8 µg/mL (≈ 20.5 µM) with Enterococcus faecalis I; 0.5 µg/mL (≈ 1.28 µM) in assay [8]; 0.5 µg/mL (≈ 1.28 µM) in assay [9]; 1 µg/mL (≈ 2.56 µM) in [10]. In addition, the negative-log IC50 (pIC50) in assay [11], in assay [12] and in [13] was at least 6.00 each time.
`CCCCC[C@H](CN(O)C=O)C(=O)N1NCC[C@H]1C(=O)Nc1ccncn1` [Example 101, (3S)-2-((2R)-2-{[Formyl(hydroxy)amino]methyl}heptanoyl)-N-4-pyrimidinyl-3-pyrazolidinecarboxamide]: the negative logarithm of the IC50 (pIC50) in [11], in [12] and in assay [13] was at least 6.00 throughout.
As to `O=CN(O)C[C@@H](CC1CCCC1)C(=O)N1N=CC[C@H]1C(=O)Nc1ccncn1` [Example 92, (5S)-1-((2R)-3-Cyclopentyl-2-{[formyl(hydroxy)amino]methyl}propanoyl)-N-4-pyrimidinyl-4,5-dihydro-1H-pyrazole-5-carboxamide], the MIC in [1] is 0.125 µg/mL (≈ 0.322 µM); in [2] (setting [17]) it was 0.5 µg/mL (≈ 1.29 µM); in assay [3] it was 0.25 µg/mL (≈ 0.644 µM); in assay [4] it was 1 µg/mL (≈ 2.57 µM); in [5] it was at most 0.06 µg/mL; in the assay on Escherichia coli 3, 16 µg/mL (≈ 41.2 µM). Also, the MIC in assay [6] came out at 0.5 µg/mL (≈ 1.29 µM); in assay [7], 0.5 µg/mL (≈ 1.29 µM); with Enterococcus faecalis I, 1 µg/mL (≈ 2.57 µM); in [8], 0.25 µg/mL (≈ 0.644 µM); in [9], 0.5 µg/mL (≈ 1.29 µM); in [10], 0.125 µg/mL (≈ 0.322 µM).
In the case of `O=CN(O)C[C@@H](CC1CCCC1)C(=O)N1NCC[C@H]1C(=O)Nc1ccc(O)cc1` [Example 123, (3S)-2-((2R)-3-Cyclopentyl-2-{[formyl(hydroxy)amino]methyl}propanoyl)-N-(4-hydroxyphenyl)-3-pyrazolidinecarboxamide], the negative-log IC50 (pIC50) in assay [11], in assay [12] and in [13] was at least 6.00 each time.
Take `CCCCC[C@H](CN(O)C=O)C(=O)N1NCC[C@H]1C(=O)Nc1ccc(F)cn1` [Example 100, (3S)—N-(5-Fluoro-2-pyridinyl)-2-((2R)-2-{[formyl(hydroxy)amino]methyl}heptanoyl)-3-pyrazolidinecarboxamide]: the pIC50 in assay [14], in assay [15] and in assay [16] was at least 6.00 throughout.
For `CN(C)CCOc1nccc(NC(=O)[C@@H]2CCNN2C(=O)[C@H](CC2CCCC2)CN(O)C=O)n1` [Example 81, (3S)-2-((2R)-3-Cyclopentyl-2-{[formyl(hydroxy)amino]methyl}propanoyl)-N-(2-{[2-(dimethylamino)ethyl]oxy}-4-pyrimidinyl)-3-pyrazolidinecarboxamide], the pIC50 in [11], in assay [12] and in [13] was at least 6.00 in each case.
